Source: patent US8021570B2, “β-peptide lyotropic liquid crystals and methods of manufacture and use thereof” (Wisconsin Alumni Research Foundation, priority 2006, dated 2011)
One block for each compound: values may come before it.

Columns and labels:
[1] = Optical microscopy of aqueous β-peptide solutions between crossed polarizing filters (birefringence = LC phase formation); assay type: physicochemical; details: aqueous solution
From the text: The inventors used optical microscopy for initial evaluation of aqueous solutions of 1-5. For each β-peptide, aqueous solutions of varying concentration were drawn into microcapillaries and examined between crossed polarizing filters at room temperature (FIGS. 1 and 3). In such experiments, the observation of birefringence is taken as evidence of LC phase formation. […] Increasing β-peptide length by one triad, to generate 3, led to LC behavior at lower concentrations, as shown by the image obtained for a 10 wt % sample (61 mM, FIG. 1C). […] Thus, self-assembly of the chiral helix formed by 3 induced a helical ordering of molecules in the LC phase whereas the two-turn, chiral helix formed by 2 was unable to induce this higher ordered phase.
β-Peptides were weighed into glass vials, diluted to the desired concentration with water, and left on an oscillatory shaker overnight to ensure dissolution. β-peptide solutions were then drawn into a 2 μL microcapillary (Drummond), and the ends were sealed with a high viscosity vacuum grease (Dow-Corning) Microcapillaries were placed on a glass slide and imaged on an Olympus BX-60 microscope (Tokyo, Japan) in transmission mode between crossed polarizing filters using a digital camera (Olympus C2020 Zoom). […] Temperature was recorded from a thermostat but was not further calibrated.
Materials and Methods • Materials. […] Solvent A and Solvent B for RP-HPLC were 0.1% trifluoroacetic acid (TFA) in Millipore water and 0.1% TFA in acetonitrile, respectively. β-peptide purity was assessed using a Vydac C18 analytical column using a flow rate of 1 mL/min from 10-60% B over 50 minutes monitoring at 220 and 273 nm. • MALDI-TOF-MS (matrix-assisted laser desorption-ionization-time-of-flight mass spectrometry) data were collected on a Bruker REFLEX II spectrometer with a 337 nm laser using α-cyano-4-hydroxycinnamic acid as matrix. […] To assess the upper limit of concentration, a 1 μL droplet of a concentrated peptide solution was allowed to slowly evaporate while being monitored for birefringence. […]

streptavidin = target: T1, streptavidin (Streptomyces avidinii, UniProt P22629); test: Stability of streptavidin immobilized on gold slides after exposure to a liquid crystal (binding of fluorescently labeled biotin); details: 2 hrs incubation
T1 construct: purchased Pierce Biotechnology

solubility limit [1]: > 10 wt %
Compound: NCCCC[C@@H](CC(N)=O)NC(=O)C[C@H](Cc1ccccc1)NC(=O)[C@H]1CCCC[C@@H]1NC(=O)C[C@H](CCCCN)NC(=O)C[C@H](Cc1ccccc1)NC(=O)[C@H]1CCCC[C@@H]1NC(=O)C[C@H](CCCCN)NC(=O)C[C@H](Cc1ccccc1)NC(=O)[C@H]1CCCC[C@@H]1NC(=O)C[C@@H](N)Cc1ccc(O)cc1 [β-peptide iso-A]

Compound: O=C([O-])c1cc(=O)c2c(OCC(O)COc3cccc4oc(C(=O)[O-])cc(=O)c34)cccc2o1.[Na+].[Na+] [disodium chromoglycate]
state of immobilized streptavidin after incubation with the liquid crystal (streptavidin; 16 wt %): streptavidin is still able to bind biotin

type of LC phase suggested by optical texture ([1]; room temperature, 2 at 19 wt %, 3 at 10 wt %): nematic
Compound: β^3-hTyr-(ACHC-ACHC-β^3-hLys)2 [β-peptide 2]

Compound: pentanoyl-NH-β^3hTyr-(ACHC-ACHC-β^3hLys)3 [pentanoyl-β^3hTyr-(ACHC-ACHC-β^3hLys)3]
state of immobilized streptavidin after incubation with the liquid crystal (streptavidin; 1 wt %): streptavidin is still able to bind biotin

LC phase formation / birefringence (result in words) [1]: strong birefringence
Compound: β^3-hTyr-(ACHC-β^3-hPhe-β^3-hLys)3 scram

Compound: CCCCCCCCCCOS(=O)(=O)[O-].[Na+] [sodium decyl sulfate]
state of immobilized streptavidin after incubation with the liquid crystal (streptavidin; 32 wt %): the protein is denatured
